US4361579A, “Organogermanium compounds” (Yoshitomi Pharmaceutical Industries, Ltd., priority 1979, dated 1982)

Columns and labels:
emigrating leukocytes = test: Potentiating Activity for Leukocyte Migration (CMC pouch); format: in vivo, rat (male Donryu); conditions: 6 hours, vs control group
Experimental: The test was performed according to the method described by H. Ishikawa et al in "Yakugaku Zasshi (Journal of the Pharmaceutical Society of Japan)", vol. 88, 1472 (1968).
Male Donryu rats weighing about 150 g were divided into groups of 4 to 5 animals each. Five ml of 2% suspension of carboxymethylcellulose (CMC) in physiological saline was injected subcutaneously in the supra-scapular area. Compounds tested (0.4 ml/rat) were administered into the CMC pouch immediately after the injection of CMC suspension. Six hours later, 0.1 ml of fluid in the CMC pouch was collected and mixed with 6 ml of 0.05% brilliant cresyl blue solution in phosphate buffer (pH 7.2). The suspension was put in a Burker chamber and the emigrating leukocytes were counted under a microscope. The percent potentiation was calculated as compared with the count in the control group.

[1] = test system: plaque forming cells (PFC) in spleen; test: Activity for Antibody Production: plaque forming cells (PFC) in spleen after sensitization with sheep red blood cells; format: in vivo, mouse (C57B1/6); conditions: Control = 100, 7 days after sensitization
Experimental: (§1) C57B1/6 mice (6 week old, 20 g) were sensitized by intraperitoneally administering sheep red blood cells of 5×10^8 /0.1 ml. Compounds tested were given orally on the same day and next day of the sensitization. Seven days after the sensitization, the number of plaque forming cells (PFC) in spleen and of rosette forming cells (RFC) in spleen and thymus were measured in a usual manner.

[2] = test system: rosette forming cells (RFC) in spleen; test: Activity for Antibody Production: rosette forming cells (RFC) in spleen after sensitization with sheep red blood cells; format: in vivo, mouse (C57B1/6); conditions: Control = 100, 7 days after sensitization
Experimental: as §1

[3] = test system: rosette forming cells (RFC) in thymus; test: Activity for Antibody Production: rosette forming cells (RFC) in thymus after sensitization with sheep red blood cells; format: in vivo, mouse (C57B1/6); conditions: Control = 100, 7 days after sensitization
Experimental: as §1

Adjuvant Arthritis = test: Prophylactic Effect on Adjuvant Arthritis (hind feet swelling); format: in vivo, rat (Lewis male); conditions: day 1 to day 20, hind feet swelling at 28 days
Experimental: The tails of Lewis male rats (250 g) were injected mycobacterium butyricum (0.5 mg/0.1 ml). Compounds tested were orally administered daily from the adjuvant inoculation day (day 1) to day 20. Swellings in the hind feet were measured at 28 days after the adjuvant inoculation.

rat = test: Acute Toxicity (rat, per os); format: in vivo; conditions: 2000 mg/kg
Description: | Acute Toxicity (rat, per os)

[4] = 30 mg/kg orally, *p < 0.05, **p < 0.01
[5] = 3 mg/kg orally, *p < 0.05, **p < 0.01

Substance | Potentiation (%) (emigrating leukocytes; 20 mg/rat into the CMC pouch) | PFC in Spleen ([1]; 30 mg/kg orally, *p < 0.05) | RFC in Spleen ([2]; 30 mg/kg orally, **p < 0.01) | RFC in Thymus [3, 4] | Inhibition (%) (Adjuvant Arthritis; 25 mg/kg orally daily) | Inhibition (%) (Adjuvant Arthritis; 100 mg/kg orally daily) | Potentiation (%) (emigrating leukocytes; 5 mg/rat into the CMC pouch) | Potentiation (%) (emigrating leukocytes; 10 mg/rat into the CMC pouch) | PFC in Spleen ([1]; 3 mg/kg orally) | RFC in Spleen ([2]; 3 mg/kg orally, *p < 0.05) | RFC in Thymus [3, 5] | other results
poly(carboxyethylgermanium sesquioxide) [Comparison, reference compound] | 13 | 100 | 121 | 168 | -18 | 15 |  |  |  |  |  | 
polycondensation product of p-(N-ethyl-2-ethoxycarbonylacetylamino)phenylgermanium trihydroxide | 96 |  |  |  |  |  | 87 |  |  |  |  | Potentiation (%) (emigrating leukocytes; 0.25 mg/rat into the CMC pouch): 7%
polycondensation product of p-(N-ethyl-3-ethoxycarbonylpropionylamino)phenylgermanium trihydroxide [Compound D] | 210 |  |  |  |  |  | 7 | 33 |  |  |  | 
polycondensation product of p-(N-methyl-2-ethoxycarbonylacetylamino)phenylgermanium trihydroxide | 91 | 175 | 703 | 431 | 48 |  |  | 16 | 125 | 346 | 284 | PFC in Spleen ([1]; 1 mg/kg orally): 110; RFC in Spleen ([2]; 1 mg/kg orally): 157; RFC in Thymus ([3]; 1 mg/kg orally, **p < 0.01): 315; Inhibition (%) (Adjuvant Arthritis; 10 mg/kg orally daily): 22%; Mortality (rat): 0/5
polycondensation product of p-(N-methyl-3-carboxypropionylamino)phenylgermanium trihydroxide | 47 |  |  |  | 35 | 53 |  | 26 | 68 | 86 | 218 | 
polycondensation product of p-(N-methyl-3-ethoxycarbonylpropionylamino)phenylgermanium trihydroxide |  | 81 | 108 | 248 | 5 | 31 | 87 |  |  |  |  | Potentiation (%) (emigrating leukocytes; 2.5 mg/rat into the CMC pouch): 17%
polycondensation product of p-(N-methyl-4-carboxybutyrylamino)phenylgermanium trihydrodie |  |  |  |  |  |  |  | 44 | 95 | 85 | 141 | 
polycondensation product of p-(N-methyl-4-ethoxycarbonylbutyrylamino)phenylgermanium trihydroxide | 56 |  |  |  |  |  |  |  |  |  |  | 
polycondensation product of p-(N-methyl-m-methylbenzoylamino)phenylgermanium trihydroxide | 55 |  |  |  |  |  |  | 46 |  |  |  | 
